The values below come from US7678918B2, “Intermediates for imidazonaphthyridines” (3M Innovative Properties Company, priority 1997, dated 2010).

For data set [1], the system named is IFN. Kind of data set: Cytokine Induction in Human Cells: interferon (IFN) secreted by PBMCs, A549/encephalomyocarditis bioassay. Further: call rule not given here. In kind it is cell-based. The following applies: 18 to 24 hours. The method, boiled down:
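Human PBMCs from healthy donors at 1.5-2×10^6 cells/mL in RPMI with 10% FBS, exposed to compounds (typically 0.1 to 100 μM, ≤1% DMSO) for 18 to 24 h at 37° C. Secreted IFN measured by A549/encephalomyocarditis virus cytopathic-effect bioassay, in alpha reference units/mL against NIH human leukocyte IFN standard.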

Data set [2] relates to TNF. Kind of data set: Cytokine Induction in Human Cells: tumor necrosis factor (TNF) secreted by PBMCs, ELISA. Further: call rule not given here. In kind it is cell-based. The following applies: 18 to 24 hours. The method, boiled down:
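Human donor PBMCs at 1.5-2×10^6 cells/mL in RPMI with 10% FBS were exposed to compound, generally at 0.1 to 100 μM (≤1% DMSO final), for 18 to 24 h at 37 °C. Secreted TNF in supernatant was measured by ELISA and reported as pg/mL.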

For data set [3], the system named is interferon α. Kind of data set: Interferon (α) Induction in Human Cells (PBM's, 48 hours, A549 bioassay). Details: key: +: indicates that the compound induced interferon α at that particular concentration; −: indicates that the compound did not induce interferon α at that particular concentration; ±: indicates that the results were equivocal at that particular concentration. The following applies: 48 hours incubation. Format: cell-based. The method, boiled down: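 Human PBMCs at 1×10^6/mL in RPMI 1640 with 25 mM HEPES and 10% heat-inactivated autologous serum were exposed to compound (initially about 0.1–5 μg/mL, ≤1% ethanol/DMSO) for 48 hours at 37° C. Secreted interferon was quantified by A549 cytopathic-effect bioassay with encephalomyocarditis virus, expressed as alpha reference units/mL against NIH HU IF-L standard.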

For `CC(C)Cn1cnc2c(N)nc3cnccc3c21` [Example 22, 1-(2-Methylpropyl)-1H-imidazo[4,5-c][1,7]naphthyridin-4-amine], the melting point (in general, the temperature, or range, at which the solid turns liquid) was in the range of 306 to 307 °C. Moreover, the IFN induction entry in data set [1] (Dose Concentration 1.0 μM) is “−”. In data set [1] (Dose Concentration 10.0 μM), the IFN induction entry is on record as “−”. In addition, in data set [1] (Dose Concentration 100.0 μM), the IFN induction result is listed as “−”. Moreover, the TNF induction result in data set [2] (Dose Concentration 1.0 μM) was “−”. The TNF induction entry in data set [2] (Dose Concentration 10.0 μM) is on record as “±”. Further, in data set [2] (Dose Concentration 100.0 μM), the TNF induction entry is “+”. Moreover, the “Interferon (α) Induction in Human Cells” value in data set [3] (Dose Concentration 1.0 μg/mL) is given as “−”. Further, the “Interferon (α) Induction in Human Cells” value in data set [3] (Dose Concentration 5.0 μg/mL) is on record as “−”. Besides, the “Interferon (α) Induction in Human Cells” value in data set [3] (Dose Concentration 10.0 μg/mL) was “−”. Besides, in data set [3] (Dose Concentration 25.0 μg/mL), the “Interferon (α) Induction in Human Cells” value is on record as “+”.
`Cc1nc2c(N)nc3cnccc3c2n1CC(C)C` [Example 25, 2-Methyl-1-(2-methylpropyl)-1H-imidazo[4,5-c][1,7]naphthyridin-4-amine] showed a melting point of 322 to 324 °C. In addition, the IFN induction result in data set [1] (Dose Concentration 1.0 μM) is given as “−”. The IFN induction result in data set [1] (Dose Concentration 10.0 μM) is “+”. For the same compound, in data set [1] (Dose Concentration 100.0 μM), the IFN induction entry is on record as “+”. Besides, the TNF induction result in data set [2] (Dose Concentration 1.0 μM) is listed as “−”. Further, the TNF induction entry in data set [2] (Dose Concentration 10.0 μM) is “±”. The TNF induction result in data set [2] (Dose Concentration 100.0 μM) was “−”. Moreover, the “Interferon (α) Induction in Human Cells” value in data set [3] (Dose Concentration 0.01 μg/mL) is “−”. Besides, in data set [3] (Dose Concentration 0.05 μg/mL), the “Interferon (α) Induction in Human Cells” value was “−”. The “Interferon (α) Induction in Human Cells” value in data set [3] (Dose Concentration 0.10 μg/mL) was “−”. In addition, the “Interferon (α) Induction in Human Cells” value in data set [3] (Dose Concentration 0.50 μg/mL) is listed as “−”. Besides, the “Interferon (α) Induction in Human Cells” value in data set [3] (Dose Concentration 1.0 μg/mL) is “−”. Further, the “Interferon (α) Induction in Human Cells” value in data set [3] (Dose Concentration 5.0 μg/mL) is listed as “+”. For the same compound, in data set [3] (Dose Concentration 10.0 μg/mL), the “Interferon (α) Induction in Human Cells” value was “+”. Further, the “Interferon (α) Induction in Human Cells” value in data set [3] (Dose Concentration 25.0 μg/mL) is “+”.
As for `Cc1nc2c(N)nc3cccnc3c2n1CC(C)C` [Example 36, 2-Methyl-1-(2-methylpropyl)-1H-imidazo[4,5-c][1,5]naphthyridin-4-amine], the melting point was 228 to 230 °C. Further, the IFN induction result in data set [1] (Dose Concentration 1.0 μM) is given as “+”. Besides, in data set [1] (Dose Concentration 10.0 μM), the IFN induction result is on record as “+”. The IFN induction result in data set [1] (Dose Concentration 100.0 μM) is “+”. Moreover, the TNF induction entry in data set [2] (Dose Concentration 1.0 μM) is reported as “−”. The TNF induction entry in data set [2] (Dose Concentration 10.0 μM) is given as “+”. Moreover, the TNF induction result in data set [2] (Dose Concentration 100.0 μM) was “−”. Besides, the “Interferon (α) Induction in Human Cells” value in data set [3] (Dose Concentration 0.01 μg/mL) is “−”. In addition, the “Interferon (α) Induction in Human Cells” value in data set [3] (Dose Concentration 0.05 μg/mL) is listed as “+”. Further, in data set [3] (Dose Concentration 0.10 μg/mL), the “Interferon (α) Induction in Human Cells” value is given as “+”. In addition, in data set [3] (Dose Concentration 0.50 μg/mL), the “Interferon (α) Induction in Human Cells” value is given as “+”. Besides, in data set [3] (Dose Concentration 1.0 μg/mL), the “Interferon (α) Induction in Human Cells” value is on record as “+”. Moreover, in data set [3] (Dose Concentration 5.0 μg/mL), the “Interferon (α) Induction in Human Cells” value was “+”. Further, the “Interferon (α) Induction in Human Cells” value in data set [3] (Dose Concentration 10.0 μg/mL) is reported as “+”. Also, the “Interferon (α) Induction in Human Cells” value in data set [3] (Dose Concentration 25.0 μg/mL) is reported as “+”. Further, the “Interferon (α) Induction in Human Cells” value in data set [3] (Dose Concentration 50.0 μg/mL) is “+”.
